Test system: histone H3 acetylation (lysine 9+14) in HeLa cervical carcinoma cells
Assay: Cellular histone H3 acetylation assay
Format: cell-based
Conditions: Homo sapiens, 24 h incubation with compound, read-out: EC50 (histone H3 acetylating cellular potency)
Description: To assess the cellular efficacy of an histone deactylase inhibitor in vitro, an assay is set up in black clear-bottom 96-well plates and optimized for use on the Cellomics “ArrayScan II” platform for a quantitative calculation of histone acetylation. The protocol uses a polyclonal rabbit antibody, specifically binding to acetylated lysine 9+14 of human histone H3 on fixed cells with an Alexa Fluor 488 labeled goat ant rabbit-IgG used for counterstaining (modified from Braunger et al. MCR annual conference 2003, Abstract 4556).
5×10^3 HeLa cervical carcinoma cells/well (ATCC CCL-2) in 200 μl Dulbecco's modified Eagle's medium (DMEM) containing 10% fetal calf serum are seeded at day 1 in Packard view plates and incubated for 24 h under standard cell culture conditions. On day 2, 2 μl test compound (100× final concentration) is added and incubation continued for further 24 h. On day 3, the culture medium is discarded and attached cells fixed for 15 min at room temperature by addition of 100 μl fixation buffer (3.7% v:v formaldehyde in phosphate buffered saline/PBS). After discarding the fixation buffer and one wash with PBS, cells are permeabilized at room temperature by addition of 100 μl/well permeabilization buffer (30.8 mM NaCl, 0.54 mM Na2HPO4, 0.31 mM KH2PO4, 5% v:v Triton X-100) for 15 min at room temperature. After discarding the permeabilization buffer and washing twice with 100 μl/well blocking solution (PBS with 0.05% v:v Tween 20 and 5% w:v milk powder) at room temperature, the 1st antibody (anti-K9+14 histone H3 antibody, Calbiochem No. 382158) in blocking solution (50 μl/well) is added. After incubation for 1 h at 37° C., the wells are washed twice at room temperature with 100 μl/well blocking solution before addition of the 2nd antibody (goat-anti-rabbit Alexa Fluor 488; MoBiTec No. A-11008) in blocking solution (50 μl/well). After further incubation for 1 h at 37° C., wells are washed twice with 100 μl/well blocking solution room temperature. Finally, 100 d/well PBS are added and image analysis performed on the Cellomics “ArrayScan II” platform. For calculation of EC50 values, the nuclear fluorescence in cells treated with and without a reference HDAC inhibitor (eg NVP-LBH-589) are taken as a positive and negative control. For EC50 determination, the percentage of positive cells is determined and EC50 calculation done from concentration-effect curves by means of non-linear regression.

EC50 [nM] | Structure (SMILES)
27 to 4400 | Cn1cc(-c2cccc(S(=O)(=O)n3ccc(/C=C/C(=O)NO)c3)c2)cn1 [Compound 12, (E)-N-Hydroxy-3-(1-[3-(1-methyl-1H-pyrazol-4-yl)-benzenesulfonyl]-1H-pyrrol-3-yl)-acrylamide]
27 to 4400 | O=C(/C=C/c1ccn(S(=O)(=O)c2cc(-c3ccccc3)ccc2CCN2CCOCC2)c1)NO [Compound 16, (E)-N-Hydroxy-3-{1-[4-(2-morpholin-4-yl-ethyl)-biphenyl-3-sulfonyl]-1H-pyrrol-3-yl}-acrylamide]
27 to 4400 | CS(=O)(=O)Nc1cccc(-c2ccc(S(=O)(=O)n3ccc(/C=C/C(=O)Nc4ccccc4N)c3)cc2)c1 [Compound 59, (E)-N-(2-Amino-phenyl)-3-[1-(3′-methanesulfonylamino-biphenyl-4-sulfonyl)-1H-pyrrol-3-yl]-acrylamide]
27 to 4400 | O=C(/C=C/c1ccn(S(=O)(=O)c2ccc(-c3cccc(CCN4CCOCC4)c3)cc2)c1)NO [Compound 9, (E)-N-Hydroxy-3-{1-[3′-(2-morpholin-4-yl-ethyl)-biphenyl-4-sulfonyl]-1H-pyrrol-3-yl}-acrylamide]
27 to 4400 | CN1CCN(c2cc(-c3ccc(S(=O)(=O)n4ccc(/C=C/C(=O)NO)c4)cc3)ccn2)CC1 [Compound 28, (E)-N-Hydroxy-3-(1-{4-[2-(4-methyl-piperazin-1-yl)-pyridin-4-yl]-benzenesulfonyl}-1H-pyrrol-3-yl)-acrylamide]
27 to 4400 | Nc1ccc(-c2cccc(S(=O)(=O)n3ccc(/C=C/C(=O)NO)c3)c2)cn1 [Compound 10, (E)-3-{1-[3-(6-Amino-pyridin-3-yl)-benzenesulfonyl]-1H-pyrrol-3-yl}-N-hydroxy-acrylamide]
27 to 4400 | CS(=O)(=O)Nc1cccc(-c2ccc(S(=O)(=O)n3ccc(/C=C/C(=O)NO)c3)cc2)c1 [Compound 22, (E)-N-hydroxy-3-[1-(3′-methanesulfonylamino-biphenyl-4-sulfonyl)-1H-pyrrol-3-yl]-acrylamide]
27 to 4400 | CS(=O)(=O)Nc1ccccc1-c1ccc(S(=O)(=O)n2ccc(/C=C/C(=O)NO)c2)cc1 [Compound 21, (E)-N-Hydroxy-3-[1-(2′-methanesulfonylamino-biphenyl-4-sulfonyl)-1H-pyrrol-3-yl]-acrylamide]
27 to 4400 | CN1CCN(c2cc(-c3cccc(S(=O)(=O)n4ccc(/C=C/C(=O)NO)c4)c3)ccn2)CC1 [Compound 33, (E)-N-Hydroxy-3-(1-{3-[2-(4-methyl-piperazin-1-yl)-pyridin-4-yl]-benzenesulfonyl}-1H-pyrrol-3-yl)-acrylamide]

Test system: HeLa cervical carcinoma cell line
Assay: Cellular cytotoxicity assay (Alamar Blue / Resazurin)
Format: cell-based
Conditions: Homo sapiens; HeLa cells, 48 hours incubation; read-out: IC50 (anti-proliferative/cytotoxic potency)
Procedure: The anti-proliferative activity of the histone deacetylase inhibitory compounds as described herein, is evaluated with the HeLa cervical carcinoma cell line (ATCC CCL2) using the Alamar Blue (Resazurin) cell viability assay (O'Brien et al. Eur J Biochem 267, 5421-5426, 2000). Resazurin is reduced to the fluorescent resorufin by cellular dehydrogenase activity, correlating with viable, proliferating cells. Test compounds are dissolved as 10 mM solutions in dimethylsulfoxide (DMSO) and subsequently diluted in semi-logarithmic steps. HeLa cells are seeded into 96 well flat bottom plates at a density of 3000 cells per well in a volume of 200 μl per well. 24 hours after seeding 1 μl each of the compound dilutions are added into each well of the 96 Well plate. Each compound dilution is tested as quadruplicates. Wells containing untreated control cells are filled with 200 μl DMEM medium containing 0.5% v:v DMSO. The cells are then incubated with the substances for 48 hours at 37° C. in a humidified atmosphere containing 5% carbon dioxide. To determine the viability of the cells, 20 μl of an Resazurin solution (Sigma; 90 mg/l) are added. After 4 hours incubation at 37° C. the fluorescence is measured at an extinction of 544 nm and an emission of 590 nm. For the calculation of the cell viability the emission value from untreated cells is set as 100% viability and the emission rates of treated cells are set in relation to the values of untreated cells. Viabilites are expressed as % values. The corresponding IC50 values of the compounds for cytotoxic activity are determined from the concentration-effect curves by means of non-linear regression.

Structure (SMILES) | IC50 [nM]
O=C(/C=C/c1ccn(S(=O)(=O)c2ccc(-c3ccc(O)cc3)cc2)c1)NO [Compound 67, (E)-N-Hydroxy-3-[1-(4′-hydroxy-biphenyl-4-sulfonyl)-1H-pyrrol-3-yl]acrylamide] | 14 to 6700
O=C(/C=C/c1ccn(S(=O)(=O)c2ccc(-c3cccc(OCCN4CCCC4)c3)cc2)c1)NO [Compound 80, (E)-N-Hydroxy-3-{1-[3′-(2-pyrrolidin-1-yl-ethoxy)-biphenyl-4-sulfonyl]-1H-pyrrol-3-yl}-acrylamide] | 14 to 6700
CN1CCN(CCCOc2ccc(-c3ccc(S(=O)(=O)n4ccc(/C=C/C(=O)NO)c4)cc3)cc2)CC1 [Compound 79, (E)-N-Hydroxy-3-(1-{4′-[3-(4-methyl-piperazin-1-yl)-propoxy]-biphenyl-4-sulfonyl}-1H-pyrrol-3-yl)-acrylamide] | 14 to 6700
CC(=O)NCc1ccc(-c2ccc(S(=O)(=O)n3ccc(/C=C/C(=O)Nc4ccccc4N)c3)cc2)cc1 [Compound 97, (E)-3-{1-[4′-(Acetylamino-methyl)-biphenyl-4-sulfonyl]-1H-pyrrol-3-yl}-N-(2-amino-phenyl)-acrylamide] | 14 to 6700
CN1CCN(c2cc(-c3ccc(S(=O)(=O)n4ccc(/C=C/C(=O)Nc5ccccc5N)c4)s3)ccn2)CC1 [Compound 106, (E)-N-(2-Amino-phenyl)-3-(1-{5-[2-(4-methyl-piperazin-1-yl)-pyridin-4-yl]-thiophene-2-sulfonyl}-1H-pyrrol-3-yl)-acrylamide] | 14 to 6700

From patent publication US7666868B2, “N-sulphonylpyrroles and their use as histone deacetylase inhibitors” (4SC AG, priority 2005, dated 2010)
